{"source": "patent US20110281812A1", "about": "“Compounds” (priority 2009, published 2011)", "key": {"[1]": {"test_system": "IL-6 production in LPS-stimulated murine spleenocytes", "assay": "Inhibition of IL-6 production in LPS-stimulated murine spleenocytes in vitro", "assay_type": "cell-based", "details": "Mus musculus, 50 μM concentration of the compound, read-out: inhibition of interleukin-6 (IL-6) production", "experimental": "Test and reference substances used in an in vitro assays were dissolved in dimethyl sulfoxide (DMSO) (Sigma Chemical Co., USA) at a concentration of 50 mM and were further diluted to test concentrations in appropriate cell culture medium.\nAfter cervical dislocation, mouse spleens were removed using sterile dissection tools. Spleens were transferred to a pre-wetted cell strainer in a 50 mL sterile conical tube and cell suspension was made by gentle puddle. Cells were centrifuged (20 min, 300×g) and resuspended in 2 mL of sterile phosphate buffered saline (PBS) (Sigma Chemical Co., USA). Red blood cells were lysed by addition of 3 mL of sterile water and occasionally gentle shaking for 1 minute. Afterwards, the tube was filled to 40 mL with DMEM medium and centrifuged (20 min, 300×g). Cells were resuspended in DMEM supplemented with 1% FBS and seeded in a 24-well plate, 1×10^6 cells per mL medium.\nFinal concentrations of 50 μM, 25 μM, 12.5 μM, 6.3 μM and 3.1 μM of test compounds were prepared by diluting a 50 mM DMSO stock in Dulbecco's modified Eagle medium (DMEM) (Gibco, USA) supplemented with 1% heat inactivated fetal bovine serum (FBS) (BioWest, Ringmer, United Kingdom).\nCells were pre-incubated with the test compounds for 3 h at 37° C., in an atmosphere of 5% CO2 and 90% humidity. Afterwards, cells were stimulated with 1 μg/mL lipopolysaccharide (LPS, E. coli 0111:B4, Sigma Chemical Co., USA) and incubated overnight. Concentration of IL-6 was determined in cell supernatants by sandwich ELISA using capture and detection antibodies (R&D Systems, USA) according to the manufacturer's recommendations.\nInhibition (as percentage) was calculated using the following formula:\n% inhibition=[1−(concentration of IL-6 in sample−concentration of IL-6 in negative control)/(concentration of IL-6 in positive control−concentration of IL-6 in negative control)]×100.\nThe positive control refers to LPS-stimulated samples that were not preincubated with the compounds.\nThe negative control refers to unstimulated and untreated samples."}, "Male BALB/c mice": {"test_system": "Male BALB/c mice", "assay": "Cigarette-smoke-induced lung neutrophilia", "assay_type": "in vivo", "details": "oral gavage; for reduction of neutrophil number in BALF, statistical significance: p<0.05 vs vehicle control", "experimental": "Male BALB/c mice (weighing 21-24 g, were randomly grouped, 5 animals per group) were pre-treated with compound (100, 30, 10, 3 and 1 mg/kg body weight) or vehicle (5% DMSO/95% methyl-cellulose 0.5% w/v, positive control) by oral gavage in a volume of 10 mL/kg. 2 hours after compound administration, 10 mice were placed into a plexiglass box (Braintree Scientific, size 10″×4″×4″) with an input port for aerosol and another port for exhaust. Cigarette smoke was introduced through the aerosol port via a peristaltic pump (Masterflex L/S, Digital Economy Drive) set at 40 ml/min. Breathing air was also introduced through the same port via an elbow in the tubing at a rate of 0.4 L/min. With these settings, smoke concentration delivered to the box was approximately 10%. 3 cigarettes (research type 4A1, University of Kentucky Tobacco Institute) were given back-to-back with a 1 min period between each one, when the mice breathed fresh air for one minute. 2 to 3 hours after the first group of cigarettes, 2 additional cigarettes were given, again allowing 1 min between each cigarette. After the last cigarette, the mice were returned to their normal housing. This procedure was carried out for 2 days.\nOn the 3rd day, mice were euthanized with 0.1 ml Fatal Plus i.p., then bronchoalveolar lavaged with 5×0.7 ml Dulbecco's phosphate-buffered saline (dPBS, in-house Media Prep lab) through a tracheal tube. BALF was spun at 3000 rpm for 10 min, the supernatant discarded, and the cells resuspended with 1 ml dPBS. Slides were made on a cytospin (100 μl fluid, spun at 300 rpm for 5 min), then stained with Diff Quick for differential counts (minimum of 200 cells counted). Total cell counts were performed with a hemocytometer after a dilution with Tuerks solution.\nResults are expressed as percentage decrease in number of neutrophils in BALF of treated animals compared to positive control (vehicle treated and smoke challenged animals)."}, "male BALB/cJ mice": {"test_system": "male BALB/cJ mice", "assay": "Lung neutrophilia induced by bacterial lipopolysaccharide in male BALB/cJ mice - Method B", "assay_type": "in vivo", "details": "Mus musculus, ip, 24 h, single dose of 100 mg/kg i.p., vs LPS challenged untreated animals", "experimental": "For intraperitoneal administration (i.p.) compounds were dissolved in a final concentration of 10 mg/mL. The required amount of compound was first dissolved in dimethylsulfoxide (DMSO, Sigma) and then diluted with 0.5% (w/v) methyl-cellulose so that the final DMSO concentration was 5% (v/v). The obtained solution was applied in a dose volume of 0.1 mL per 10 g of animal. Therefore, the compound dose was 100 mg/kg.\nMale BALB/cJ mice (Charles River, Germany), with an average weight of ˜25 g were randomly grouped (n=8 in testing group, 10 in positive control and 6-8 in negative control). Mice received intraperitoneally (i.p.) a single dose of 100 mg/kg of test compound. Two hours after administration, 0.4 μg of LPS (from Escherichia coli serotype 0111:B4, Sigma), dissolved in sterile saline (0.9% NaCl) in a volume of 50 μL, was intranasally administered to all experimental groups except the negative control group, which received the same volume of vehicle (saline). Animals were sacrificed approximately 24 hours after application of LPS in order to obtain bronchoalveolar lavage fluid (BALF), which was used to determine absolute number of cells and the percentage of neutrophils. […] In some experiments neutrophil levels in BALF were assessed by measurement of concentration of a neutrophil-specific enzyme myeloperoxidase (MPO). Results are then expressed as percentage of decrease in myeloperoxidase (MPO) concentration measured in BALF lysates of treated animals compared to positive control (Mouse MPO ELISA Kit, Hycult biotechnology, Nederlands). For this purpose, BALF was sonicated after addition of 1.5% Triton-X-100 (Pharmacia Biotech) in Milli-Q water and frozen at −80° C. until analysed."}, "[2]": {"details": "Neutrophil, read-out: inhibition of number of neutrophils or decrease in myeloperoxidase concentration in BALF"}, "[3]": {"details": "read-out: inhibition of total cell number in BALF"}}, "note": "Where two headings read alike, the source gives them in different places."}
{"smiles": "CCC(=O)NCCCO[C@H]1[C@H](O[C@@H]2[C@@H](C)[C@H](O[C@H]3C[C@@](C)(OC)[C@@H](O)[C@H](C)O3)[C@@H](C)C(=O)O[C@H](CC)[C@@](C)(O)[C@H](O)[C@@H](C)N(C)C[C@H](C)C[C@@]2(C)O)O[C@H](C)C[C@@H]1N(C)C", "note": "[Example 2, 2′-O-[3-(Propanoylamino)propyl]-9-deoxo-9a-methyl-9a-aza-9a-homoerythromycin A]", "values": [{"measurement": "inhibition at 50 µM", "setting": "[1]", "result": "> 40", "unit": "%"}, {"measurement": "reduction of neutrophil number in BALF, statistical significance", "setting": "Male BALB/c mice; dose of 100 mg/kg", "result": "no statistical significance"}, {"measurement": "inhibition of neutrophil number in BALF", "setting": "Male BALB/c mice; dose of 100 mg/kg, vs vehicle treated smoke challenged animals", "result": "less than 10%"}]}
{"smiles": "CCOCC(=O)NCCCO[C@H]1[C@H](O[C@@H]2[C@@H](C)[C@H](O[C@H]3C[C@@](C)(OC)[C@@H](O)[C@H](C)O3)[C@@H](C)C(=O)O[C@H](CC)[C@@](C)(O)[C@H](O)[C@@H](C)N(C)C[C@H](C)C[C@@]2(C)O)O[C@H](C)C[C@@H]1N(C)C", "note": "[Example 21, 2′-O-{3-[(Ethyloxyacetyl)amino]propyl}-9-deoxo-9a-methyl-9a-aza-9a-homoerythromycin A]", "values": [{"measurement": "inhibition at 50 µM", "setting": "[1]", "result": "> 40", "unit": "%"}, {"measurement": "inhibition in vivo at 100 mg/kg", "setting": "male BALB/cJ mice; [2]", "result": "> 50", "unit": "%"}, {"measurement": "inhibition in vivo at 100 mg/kg", "setting": "male BALB/cJ mice; [3]", "result": "> 50", "unit": "%"}, {"measurement": "reduction of neutrophil number in BALF, statistical significance", "setting": "Male BALB/c mice; dose of 30 mg/kg", "result": "statistically significantly reduced"}]}
{"smiles": "CC[C@H]1OC(=O)[C@H](C)[C@@H](O[C@H]2C[C@@](C)(OC)[C@@H](O)[C@H](C)O2)[C@H](C)[C@@H](O[C@@H]2O[C@H](C)C[C@H](N(C)C)[C@H]2OCCCNC(=O)c2cccnc2)[C@](C)(O)C[C@@H](C)CN(C)[C@H](C)[C@@H](O)[C@]1(C)O", "note": "[Example 20, 2′-O-{3-[(3-Pyridinylcarbonyl)amino]propyl}-9-deoxo-9a-methyl-9a-aza-9a-homoerythromycin A]", "values": [{"measurement": "inhibition at 50 µM", "setting": "[1]", "result": "> 40", "unit": "%"}, {"measurement": "inhibition in vivo at 100 mg/kg", "setting": "male BALB/cJ mice; [2]", "result": "> 30", "unit": "%"}, {"measurement": "inhibition in vivo at 100 mg/kg", "setting": "male BALB/cJ mice; [3]", "result": "> 30", "unit": "%"}]}
{"smiles": "CC[C@H]1OC(=O)[C@H](C)[C@@H](O[C@H]2C[C@@](C)(OC)[C@@H](O)[C@H](C)O2)[C@H](C)[C@@H](O[C@@H]2O[C@H](C)C[C@H](N(C)C)[C@H]2OCCCNC(=O)c2cnc(C)cn2)[C@](C)(O)C[C@@H](C)CN(C)[C@H](C)[C@@H](O)[C@]1(C)O", "note": "[Example 18, 2′-O-(3-{[(5-Methyl-2-pyrazinyl)carbonyl]amino}propyl)-9-deoxo-9a-methyl-9a-aza-9a-homoerythromycin A]", "values": [{"measurement": "inhibition at 50 µM", "setting": "[1]", "result": "> 40", "unit": "%"}, {"measurement": "inhibition in vivo at 100 mg/kg", "setting": "male BALB/cJ mice; [2]", "result": "> 50", "unit": "%"}, {"measurement": "inhibition in vivo at 100 mg/kg", "setting": "male BALB/cJ mice; [3]", "result": "> 50", "unit": "%"}]}
{"smiles": "CC[C@H]1OC(=O)[C@H](C)[C@@H](O[C@H]2C[C@@](C)(OC)[C@@H](O)[C@H](C)O2)[C@H](C)[C@@H](O[C@@H]2O[C@H](C)C[C@H](N(C)C)[C@H]2OCCCNC(=O)COC)[C@](C)(O)C[C@@H](C)CN(C)[C@H](C)[C@@H](O)[C@]1(C)O", "note": "[Example 16, 2′-O-{3-[(Methoxyacetyl)amino]propyl}-9-deoxo-9a-methyl-9a-aza-9a-homoerythromycin A]", "values": [{"measurement": "inhibition at 50 µM", "setting": "[1]", "result": "> 40", "unit": "%"}, {"measurement": "inhibition in vivo at 100 mg/kg", "setting": "male BALB/cJ mice; [2]", "result": "> 50", "unit": "%"}, {"measurement": "inhibition in vivo at 100 mg/kg", "setting": "male BALB/cJ mice; [3]", "result": "> 50", "unit": "%"}, {"measurement": "reduction of neutrophil number in BALF, statistical significance", "setting": "Male BALB/c mice; dose of 30 mg/kg", "result": "statistically significantly reduced"}]}
{"smiles": "CC[C@H]1OC(=O)[C@H](C)[C@@H](O[C@H]2C[C@@](C)(OC)[C@@H](O)[C@H](C)O2)[C@H](C)[C@@H](O[C@@H]2O[C@H](C)C[C@H](N(C)C)[C@H]2OCCCNC(=O)c2ccoc2)[C@](C)(O)C[C@@H](C)CN(C)[C@H](C)[C@@H](O)[C@]1(C)O", "note": "[Example 17, 2′-O-{3-[(3-Furanylcarbonyl)amino]propyl}-9-deoxo-9a-methyl-9a-aza-9a-homoerythromycin A]", "values": [{"measurement": "inhibition at 50 µM", "setting": "[1]", "result": "> 40", "unit": "%"}, {"measurement": "inhibition in vivo at 100 mg/kg", "setting": "male BALB/cJ mice; [2]", "result": "> 50", "unit": "%"}, {"measurement": "inhibition in vivo at 100 mg/kg", "setting": "male BALB/cJ mice; [3]", "result": "> 50", "unit": "%"}]}
{"smiles": "CC[C@H]1OC(=O)[C@H](C)[C@@H](O[C@H]2C[C@@](C)(OC)[C@@H](O)[C@H](C)O2)[C@H](C)[C@@H](O[C@@H]2O[C@H](C)C[C@H](N(C)C)[C@H]2OCCCNC(=O)CCC(=O)OC)[C@](C)(O)C[C@@H](C)CN(C)[C@H](C)[C@@H](O)[C@]1(C)O", "note": "[Example 13, 2′-O-(3-{[4-(Methyloxy)-4-oxobutanoyl]amino}propyl)-9-deoxo-9a-methyl-9a-aza-9a-homoerythromycin A]", "values": [{"measurement": "inhibition at 50 µM", "setting": "[1]", "result": "> 40", "unit": "%"}, {"measurement": "inhibition in vivo at 100 mg/kg", "setting": "male BALB/cJ mice; [2]", "result": "> 50", "unit": "%"}, {"measurement": "inhibition in vivo at 100 mg/kg", "setting": "male BALB/cJ mice; [3]", "result": "> 50", "unit": "%"}]}
